We go through two molecules from PubChem BioAssay AID602462 (NMMLSC, 2012).

The source made the active and inactive calls.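 The calls were made as follows: active = compounds passing through the artificial lipid membrane faster than 100 units at the neutral pH 7.4; inactive = the rest.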

This data set has as its system PAMPA double-sink, GIT-0 lipid, UV read-out. Nature of the data set: artificial-membrane permeation in aqueous buffer – biophysical, double-sink PAMPA, pH 5.0/6.2/7.4, ADME assay for GPR30 and estrogen receptor ligands, late-stage follow-up (AID 602462). As to conditions: stronger effect = higher value; for permeability Pe pH 5.0: measured here: permeability at pH 5.0; for permeability Pe pH 6.2: measured here: permeability at pH 6.2. (PAMPA measures passive passage across an artificial lipid membrane.)

As for `COc1cc([N+](=O)[O-])cc2c1NC(C1CC=CCC1)C1CC=CC21` (stereo unspecified), the permeability Pe pH 7.4 was 117 10^-6 cm/s, the permeability Pe pH 5.0 is 44 10^-6 cm/s and the permeability Pe pH 6.2 was 120 10^-6 cm/s.

With `CC(=O)c1ccc2c(c1)[C@@H]1C=CC[C@@H]1[C@H](c1cc3c(cc1Br)OCO3)N2`, the permeability Pe pH 7.4 was 0 10^-6 cm/s (inactive), the permeability Pe pH 5.0 was 0 10^-6 cm/s and the permeability Pe pH 6.2 is 0 10^-6 cm/s.
